# Test results published in patent US8933230B2, “Phosphorus-containing group-substituted quinoline, its preparation process, medical composition containing the compounds and application” (priority 2011, dated 2015).
# Columns and labels:
# Experiment in all cases: KinomeScan kinase panel
# Assay type in all cases: binding
# SBK1 = target: T1, SBK1 (Homo sapiens, UniProt Q52WX2)
# T1 construct: purchased DiscoveRx Corporation (KinomeScan)
# In short: (§1)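 Values come from one concentration only (1000 nM) within a broad 442-kinase KinomeScan screen.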
# [1] = target: T2, RPS6KA4(kin.Dom.1-N-termimal) (Homo sapiens, UniProt O75676)
# T2 construct: kin.Dom.1; purchased DiscoveRx Corporation
# In short: as §1
# MAP4K2 = target: T3, MAP4K2 (Homo sapiens, UniProt Q12851)
# T3 construct: purchased DiscoveRx Corporation (KinomeScan)
# In short: as §1
# JNK3 = target: T4, JNK3 (Homo sapiens, UniProt P53779)
# T4 construct: purchased DiscoveRx Corporation (KinomeScan)
# In short: as §1
# PAKC-alpha = target: T5, PAKC-alpha (Homo sapiens, UniProt P17612)
# T5 construct: purchased DiscoveRx Corporation (KinomeScan)
# In short: as §1
# SNRK = target: T6, SNRK (Homo sapiens, UniProt Q9NRH2)
# T6 construct: purchased DiscoveRx Corporation (KinomeScan)
# In short: as §1
# [2] = target: T7, ABL1(T315I)-nonphosphorylated (Homo sapiens, UniProt P00519, T315I)
# T7 construct: purchased DiscoveRx Corporation (KinomeScan)
# In short: as §1
# CAMKK2 = target: T8, CAMKK2 (Homo sapiens, UniProt Q96RR4)
# T8 construct: purchased DiscoveRx Corporation (KinomeScan)
# T8 sequence (Q96RR4 whole entry): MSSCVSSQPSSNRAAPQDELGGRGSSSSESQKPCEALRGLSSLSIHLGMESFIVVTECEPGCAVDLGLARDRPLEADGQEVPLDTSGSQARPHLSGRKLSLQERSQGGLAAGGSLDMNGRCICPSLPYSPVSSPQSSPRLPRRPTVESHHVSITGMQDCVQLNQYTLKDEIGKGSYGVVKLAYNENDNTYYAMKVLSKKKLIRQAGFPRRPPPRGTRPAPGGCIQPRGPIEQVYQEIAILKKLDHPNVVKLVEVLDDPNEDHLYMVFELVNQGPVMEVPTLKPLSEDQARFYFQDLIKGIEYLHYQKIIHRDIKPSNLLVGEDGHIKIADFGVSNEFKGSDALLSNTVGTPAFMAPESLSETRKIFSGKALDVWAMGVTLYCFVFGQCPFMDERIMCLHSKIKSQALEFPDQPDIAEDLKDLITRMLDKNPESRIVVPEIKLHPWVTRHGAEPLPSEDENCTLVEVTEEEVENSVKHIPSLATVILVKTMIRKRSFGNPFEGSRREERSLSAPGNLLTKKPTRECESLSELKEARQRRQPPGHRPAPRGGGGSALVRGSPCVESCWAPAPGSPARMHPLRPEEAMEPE
# In short: as §1
# STK39 = target: T9, STK39 (Homo sapiens, UniProt Q9UEW8)
# T9 construct: purchased DiscoveRx Corporation (KinomeScan)
# In short: as §1
# MERTK = target: T10, MERTK (Homo sapiens, UniProt Q12866)
# T10 construct: purchased DiscoveRx Corporation (KinomeScan)
# In short: as §1
# DYRK1A = target: T11, DYRK1A (Homo sapiens, UniProt Q13627)
# T11 construct: purchased DiscoveRx Corporation (KinomeScan)
# In short: as §1
# PIK3CD = target: T12, PIK3CD (Homo sapiens, UniProt O00329)
# T12 construct: purchased DiscoveRx Corporation (KinomeScan)
# T12 sequence (O00329 whole entry): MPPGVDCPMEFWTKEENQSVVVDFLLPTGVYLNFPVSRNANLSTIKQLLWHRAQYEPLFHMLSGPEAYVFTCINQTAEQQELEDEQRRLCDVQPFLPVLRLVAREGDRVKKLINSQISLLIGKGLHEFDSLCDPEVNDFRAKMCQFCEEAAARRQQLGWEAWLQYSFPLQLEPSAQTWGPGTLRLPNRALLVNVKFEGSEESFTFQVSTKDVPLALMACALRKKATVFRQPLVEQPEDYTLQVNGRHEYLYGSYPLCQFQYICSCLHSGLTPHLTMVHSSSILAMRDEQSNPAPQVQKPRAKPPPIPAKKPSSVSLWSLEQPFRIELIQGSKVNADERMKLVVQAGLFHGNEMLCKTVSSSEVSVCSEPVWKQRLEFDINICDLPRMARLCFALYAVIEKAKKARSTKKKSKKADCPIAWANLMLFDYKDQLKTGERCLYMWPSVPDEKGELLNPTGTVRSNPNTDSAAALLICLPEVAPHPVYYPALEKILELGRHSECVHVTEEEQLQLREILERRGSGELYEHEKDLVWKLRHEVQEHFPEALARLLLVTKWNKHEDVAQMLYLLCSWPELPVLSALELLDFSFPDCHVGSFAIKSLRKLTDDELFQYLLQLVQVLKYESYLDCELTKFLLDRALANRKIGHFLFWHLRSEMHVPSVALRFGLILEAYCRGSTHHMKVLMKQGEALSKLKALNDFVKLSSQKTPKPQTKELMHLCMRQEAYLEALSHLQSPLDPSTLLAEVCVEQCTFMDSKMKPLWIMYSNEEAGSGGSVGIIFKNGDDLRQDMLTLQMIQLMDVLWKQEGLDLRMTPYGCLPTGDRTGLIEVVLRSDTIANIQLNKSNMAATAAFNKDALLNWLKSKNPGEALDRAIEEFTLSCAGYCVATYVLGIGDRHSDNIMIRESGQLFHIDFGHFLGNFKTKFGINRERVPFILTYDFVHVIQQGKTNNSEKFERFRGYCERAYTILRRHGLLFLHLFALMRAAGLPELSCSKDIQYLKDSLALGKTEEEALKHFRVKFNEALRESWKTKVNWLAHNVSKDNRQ
# In short: as §1
# CHEK1 = target: T13, CHEK1 (Homo sapiens, UniProt O14757)
# T13 construct: purchased DiscoveRx Corporation (KinomeScan)
# In short: as §1
# CAMK1G = target: T14, CAMK1G (Homo sapiens, UniProt Q96NX5)
# T14 construct: purchased DiscoveRx Corporation (KinomeScan)
# T14 sequence (Q96NX5 whole entry): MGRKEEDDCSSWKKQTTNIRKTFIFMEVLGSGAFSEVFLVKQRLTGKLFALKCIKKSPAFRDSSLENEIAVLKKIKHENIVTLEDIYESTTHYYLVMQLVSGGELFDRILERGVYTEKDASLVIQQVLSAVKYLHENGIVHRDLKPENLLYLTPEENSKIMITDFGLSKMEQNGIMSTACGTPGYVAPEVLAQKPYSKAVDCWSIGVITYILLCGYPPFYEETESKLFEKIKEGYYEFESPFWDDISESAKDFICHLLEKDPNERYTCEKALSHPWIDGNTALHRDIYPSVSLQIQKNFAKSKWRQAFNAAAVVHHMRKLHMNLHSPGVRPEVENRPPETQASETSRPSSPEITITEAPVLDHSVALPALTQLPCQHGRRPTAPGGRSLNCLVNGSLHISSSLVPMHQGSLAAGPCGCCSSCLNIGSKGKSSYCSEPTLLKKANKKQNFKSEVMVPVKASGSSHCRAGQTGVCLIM
# In short: as §1
# PIM3 = target: T15, PIM3 (Homo sapiens, UniProt Q86V86)
# T15 construct: purchased DiscoveRx Corporation (KinomeScan)
# In short: as §1
# ABL2 = target: T16, ABL2 (Homo sapiens, UniProt P42684)
# T16 construct: purchased DiscoveRx Corporation (KinomeScan)
# In short: as §1
# AURKA = target: T17, AURKA (Homo sapiens, UniProt O14965)
# T17 construct: purchased DiscoveRx Corporation (KinomeScan)
# T17 sequence (O14965 whole entry): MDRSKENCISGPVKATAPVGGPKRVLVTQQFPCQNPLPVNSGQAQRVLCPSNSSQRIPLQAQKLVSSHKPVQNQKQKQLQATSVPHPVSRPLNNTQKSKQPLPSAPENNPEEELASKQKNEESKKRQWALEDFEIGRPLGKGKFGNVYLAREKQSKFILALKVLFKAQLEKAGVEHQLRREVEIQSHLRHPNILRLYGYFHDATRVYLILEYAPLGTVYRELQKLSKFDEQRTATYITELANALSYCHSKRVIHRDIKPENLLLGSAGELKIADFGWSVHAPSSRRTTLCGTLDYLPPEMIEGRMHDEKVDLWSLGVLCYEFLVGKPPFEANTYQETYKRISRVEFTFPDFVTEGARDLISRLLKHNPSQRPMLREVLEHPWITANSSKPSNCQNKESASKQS
# In short: as §1
# DLK = target: T18, DLK (Homo sapiens, UniProt Q12852)
# T18 construct: purchased DiscoveRx Corporation (KinomeScan)
# In short: as §1
# PDGFRA = target: T19, PDGFRA (Homo sapiens, UniProt P16234)
# T19 construct: purchased DiscoveRx Corporation (KinomeScan panel)
# In short: as §1
# FLT3(D835Y) = target: T20, FLT3(D835Y) (Homo sapiens, UniProt P36888, D835Y)
# T20 construct: purchased DiscoveRx Corporation (KinomeScan)
# In short: as §1
# ROS1 = target: T21, ROS1 (Homo sapiens, UniProt P08922)
# T21 construct: purchased DiscoveRx Corporation
# In short: as §1
# HIPK1 = target: T22, HIPK1 (Homo sapiens, UniProt Q86Z02)
# T22 construct: purchased DiscoveRx Corporation (KinomeScan)
# In short: as §1
# [3] = target: T23, ABL1(M351T)-phosphorylated (Homo sapiens, UniProt P00519, M351T)
# T23 construct: purchased DiscoveRx Corporation (KinomeScan)
# In short: as §1
# ZAK = target: T24, ZAK (Homo sapiens, UniProt Q9NYL2)
# T24 construct: purchased DiscoveRx Corporation (KinomeScan service)
# In short: as §1
# RET (V804M) = target: T25, RET (V804M) (Homo sapiens, UniProt P07949, V804M)
# T25 construct: purchased DiscoveRx Corporation
# In short: as §1
# DMPK = target: T26, DMPK (Homo sapiens, UniProt Q09013)
# T26 construct: purchased DiscoveRx Corporation (KinomeScan)
# T26 sequence (Q09013 whole entry): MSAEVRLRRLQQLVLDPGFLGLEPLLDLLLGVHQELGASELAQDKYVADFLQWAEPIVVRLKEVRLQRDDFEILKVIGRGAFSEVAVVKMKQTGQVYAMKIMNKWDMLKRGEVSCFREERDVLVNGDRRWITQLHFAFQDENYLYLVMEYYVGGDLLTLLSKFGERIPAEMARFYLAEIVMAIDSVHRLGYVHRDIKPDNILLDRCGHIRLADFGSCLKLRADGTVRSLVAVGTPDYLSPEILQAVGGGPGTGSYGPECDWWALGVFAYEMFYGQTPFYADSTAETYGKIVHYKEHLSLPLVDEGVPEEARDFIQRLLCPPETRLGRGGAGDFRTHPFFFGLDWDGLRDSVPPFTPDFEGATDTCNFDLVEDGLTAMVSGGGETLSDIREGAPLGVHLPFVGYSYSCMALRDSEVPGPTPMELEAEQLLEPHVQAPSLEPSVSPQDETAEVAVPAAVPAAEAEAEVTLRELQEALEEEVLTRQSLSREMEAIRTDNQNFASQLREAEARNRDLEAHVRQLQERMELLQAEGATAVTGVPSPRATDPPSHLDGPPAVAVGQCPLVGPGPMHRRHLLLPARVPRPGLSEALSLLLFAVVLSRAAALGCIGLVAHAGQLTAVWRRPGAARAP
# In short: as §1
# S6K1 = target: T27, S6K1 (Homo sapiens, UniProt P23443)
# T27 construct: purchased DiscoveRx Corporation (KinomeScan)
# T27 sequence (P23443 whole entry): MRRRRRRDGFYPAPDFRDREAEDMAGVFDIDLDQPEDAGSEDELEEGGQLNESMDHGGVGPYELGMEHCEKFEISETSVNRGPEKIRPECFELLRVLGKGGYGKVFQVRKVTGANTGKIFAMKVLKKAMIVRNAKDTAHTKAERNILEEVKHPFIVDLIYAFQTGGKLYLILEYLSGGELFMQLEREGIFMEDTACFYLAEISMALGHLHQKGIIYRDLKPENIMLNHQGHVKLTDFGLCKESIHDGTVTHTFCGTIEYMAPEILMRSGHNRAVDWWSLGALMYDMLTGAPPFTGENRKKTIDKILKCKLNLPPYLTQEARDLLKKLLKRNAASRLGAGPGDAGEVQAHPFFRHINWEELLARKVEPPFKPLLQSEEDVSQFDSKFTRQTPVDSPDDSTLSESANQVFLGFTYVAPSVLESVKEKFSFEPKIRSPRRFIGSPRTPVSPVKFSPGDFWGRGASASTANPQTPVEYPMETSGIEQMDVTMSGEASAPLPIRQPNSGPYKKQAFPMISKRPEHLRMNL
# In short: as §1
# CDKL1 = target: T28, CDKL1 (Homo sapiens, UniProt Q00532)
# T28 construct: purchased DiscoveRx Corporation (KinomeScan)
# T28 sequence (Q00532 whole entry): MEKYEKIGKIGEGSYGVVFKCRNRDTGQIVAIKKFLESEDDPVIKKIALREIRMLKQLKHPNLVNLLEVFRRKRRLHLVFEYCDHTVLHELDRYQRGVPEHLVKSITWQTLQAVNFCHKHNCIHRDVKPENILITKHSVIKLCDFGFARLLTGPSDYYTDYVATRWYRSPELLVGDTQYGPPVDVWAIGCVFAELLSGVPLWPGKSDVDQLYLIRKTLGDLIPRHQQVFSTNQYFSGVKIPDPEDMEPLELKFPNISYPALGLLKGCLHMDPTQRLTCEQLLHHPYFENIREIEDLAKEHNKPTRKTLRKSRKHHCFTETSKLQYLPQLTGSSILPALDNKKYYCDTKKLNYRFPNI
# In short: as §1
# MARK2 = target: T29, MARK2 (Homo sapiens, UniProt Q7KZI7)
# T29 construct: purchased DiscoveRx Corporation (KinomeScan)
# In short: as §1
# PRKCE = target: T30, PRKCE (Homo sapiens, UniProt Q02156)
# T30 construct: purchased DiscoveRx Corporation (KinomeScan)
# In short: as §1
# FGFR4 = target: T31, FGFR4 (Homo sapiens, UniProt P22455)
# T31 construct: purchased DiscoveRx Corporation (KinomeScan)
# In short: as §1
# CSNK1E = target: T32, CSNK1E (Homo sapiens, UniProt P49674)
# T32 construct: purchased DiscoveRx Corporation (KinomeScan)
# In short: as §1
# NLK = target: T33, NLK (Homo sapiens, UniProt Q9UBE8)
# T33 construct: purchased DiscoveRx Corporation (KinomeScan panel)
# In short: as §1
# NEK7 = target: T34, NEK7 (Homo sapiens, UniProt Q8TDX7)
# T34 construct: purchased DiscoveRx Corporation (KinomeScan panel)
# T34 sequence (Q8TDX7 whole entry): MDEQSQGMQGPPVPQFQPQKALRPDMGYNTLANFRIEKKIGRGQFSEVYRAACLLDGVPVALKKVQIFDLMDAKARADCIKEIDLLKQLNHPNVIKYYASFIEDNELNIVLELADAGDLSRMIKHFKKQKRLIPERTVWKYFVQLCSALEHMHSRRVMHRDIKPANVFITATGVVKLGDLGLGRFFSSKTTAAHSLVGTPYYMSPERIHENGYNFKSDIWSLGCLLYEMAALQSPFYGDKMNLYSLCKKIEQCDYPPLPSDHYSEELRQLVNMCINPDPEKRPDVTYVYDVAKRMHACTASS
# In short: as §1
# MYO3A = target: T35, MYO3A (Homo sapiens, UniProt Q8NEV4)
# T35 construct: purchased DiscoveRx Corporation (KinomeScan)
# In short: as §1
# T1 sequence (Q52WX2 whole entry): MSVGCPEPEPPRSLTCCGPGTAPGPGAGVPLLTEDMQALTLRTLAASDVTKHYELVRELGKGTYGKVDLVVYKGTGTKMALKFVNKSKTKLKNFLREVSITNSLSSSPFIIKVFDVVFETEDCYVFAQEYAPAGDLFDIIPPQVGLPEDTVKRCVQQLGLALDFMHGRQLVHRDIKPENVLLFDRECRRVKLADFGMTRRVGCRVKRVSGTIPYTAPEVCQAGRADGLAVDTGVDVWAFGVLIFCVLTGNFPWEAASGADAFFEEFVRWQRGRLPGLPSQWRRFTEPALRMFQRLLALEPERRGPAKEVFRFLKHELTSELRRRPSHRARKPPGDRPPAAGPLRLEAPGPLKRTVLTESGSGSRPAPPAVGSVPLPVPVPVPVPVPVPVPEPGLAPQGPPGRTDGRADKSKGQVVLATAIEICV
smiles,measurement,setting,value
"CCOP(=O)(CN1CCC(COc2cc3nccc(Oc4ccc(NC(=O)C5(C(=O)Nc6ccc(F)cc6)CC5)cc4F)c3cc2OC)CC1)OCC [Example 10, N1-[4-[[7-[[1-(diethoxyphosphorylmethyl)-4-piperidinyl]methoxyl]-6-methoxyl-4-quinolyl]oxyl]-3-fluorophenyl]-N1′-(4-fluorophenyl)cyclopropane-1,1-dicarboxamide]",% Ctrl@1000 nM,SBK1,100 % Ctrl
same,% Ctrl@1000 nM,[1],76 % Ctrl
same,% Ctrl@1000 nM,MAP4K2,100 % Ctrl
same,% Ctrl@1000 nM,JNK3,95 % Ctrl
same,% Ctrl@1000 nM,PAKC-alpha,100 % Ctrl
same,% Ctrl@1000 nM,SNRK,100 % Ctrl
same,% Ctrl@1000 nM,[2],3.8 % Ctrl
same,% Ctrl@1000 nM,CAMKK2,81 % Ctrl
same,% Ctrl@1000 nM,STK39,100 % Ctrl
same,% Ctrl@1000 nM,MERTK,2.1 % Ctrl
same,% Ctrl@1000 nM,DYRK1A,100 % Ctrl
same,% Ctrl@1000 nM,PIK3CD,100 % Ctrl
same,% Ctrl@1000 nM,CHEK1,100 % Ctrl
same,% Ctrl@1000 nM,CAMK1G,88 % Ctrl
same,% Ctrl@1000 nM,PIM3,67 % Ctrl
same,% Ctrl@1000 nM,ABL2,28 % Ctrl
same,% Ctrl@1000 nM,AURKA,100 % Ctrl
same,% Ctrl@1000 nM,DLK,52 % Ctrl
same,% Ctrl@1000 nM,PDGFRA,1.8 % Ctrl
same,% Ctrl@1000 nM,FLT3(D835Y),2.4 % Ctrl
same,% Ctrl@1000 nM,ROS1,29 % Ctrl
same,% Ctrl@1000 nM,HIPK1,92 % Ctrl
same,% Ctrl@1000 nM,[3],42 % Ctrl
same,% Ctrl@1000 nM,ZAK,36 % Ctrl
same,% Ctrl@1000 nM,RET (V804M),0.6 % Ctrl
same,% Ctrl@1000 nM,DMPK,85 % Ctrl
same,% Ctrl@1000 nM,S6K1,89 % Ctrl
same,% Ctrl@1000 nM,CDKL1,100 % Ctrl
same,% Ctrl@1000 nM,MARK2,100 % Ctrl
same,% Ctrl@1000 nM,PRKCE,100 % Ctrl
same,% Ctrl@1000 nM,FGFR4,100 % Ctrl
same,% Ctrl@1000 nM,CSNK1E,100 % Ctrl
same,% Ctrl@1000 nM,NLK,100 % Ctrl
same,% Ctrl@1000 nM,NEK7,100 % Ctrl
same,% Ctrl@1000 nM,MYO3A,93 % Ctrl
